Measurements reported in publication PMC10789121, “Amine Basicity of Quinoline ATP Synthase Inhibitors Drives Antibacterial Activity against Pseudomonas aeruginosa” (ACS Medicinal Chemistry Letters, 2023).
Several values for one entry are separate records, joined by “and”; a condition that tells them apart may be missing. Equal entries are not always repeated. Where two headings read alike, the source gives them in different places.

Tests used:
PA ATP synthase = biological target: T1, PA ATP synthase (Pseudomonas aeruginosa, UniProt Q9HT15); test: Inhibition of NADH-driven PA ATP synthesis activity in DK8/pASH20 inverted membrane vesicles (end-point luciferin/luciferase assay); type: biochemical; conditions: PA ATP synthase IC50 (absolute), NADH-driven ATP synthesis, EC DK8/pASH20 inverted membrane vesicles
T1 construct: a whole operon plasmid that expresses; made in house; host or cells: Escherichia coli DK8 (K-12 strain lacking the unc operon) transformed with pASH20; used as inverted membrane vesicles, not purified

[1] = system: PA electron transport chain; test: Electron transport activity (ACMA fluorescence quenching) in PA 9027 inverted membrane vesicles; type: biochemical, Pseudomonas aeruginosa; conditions: for PA ETC IC50: PA 9027 inverted membrane vesicles
Excerpt: The assay for PA ATP synthase activity in EC DK8/pASH20 membrane vesicles requires a functional EC ETC, so potent inhibition of the EC ETC by any compound would interfere with the determination of its IC50 for PA ATP synthase. […] Furthermore, potent inhibition of PA ETC could be an alternative mechanism of action for the antibacterial activity of the current series.
(§1) Determination of electron transport activity. As previously described,11 inverted membrane vesicles from PA 9027 or E. coli DK8 pASH20 were added to HMK buffer containing 0.3 µg/mL 9-amino-6-chloro-2-methoxyacridine (ACMA) and 0-64 µg/mL test compound in DMSO. After measurement of baseline ACMA fluorescence for 60 s, redox-driven H+ pumping was initiated by addition of NADH to 0.8 mM, and fluorescence quenching was monitored for 120 s before addition of nigericin to 0.5 µg/mL. Relative activity is reported as the minimum fluorescence value normalized to the maximum fluorescence value following addition of nigericin.

[2] = system: EC electron transport chain; test: Electron transport activity (ACMA fluorescence quenching) in E. coli DK8 pASH20 inverted membrane vesicles; type: biochemical, Escherichia coli
Description: as §1

PA 9027 = test: Antimicrobial susceptibility, broth microdilution MIC; type: cell-based; conditions: Pseudomonas aeruginosa, read-out: MIC PA 9027
Description: (§2) Pseudomonas aeruginosa (ATCC 9027), Drug-Resistant Pseudomonas aeruginosa from ATCC Panel MP-23 (BAA-2108, BAA-2109, BAA-2110), and Pseudomonas aeruginosa efflux knockout GKCW120 (PD6)14 provided by Zgurskaya and co-workers at the University of Oklahoma.
(§3) Antimicrobial Susceptibility Assay Procedure. Susceptibility testing was performed in biological triplicate, using the broth microdilution method as outlined by the Clinical and Laboratory Standards Institute. Briefly, minimum inhibitory concentrations (MIC) determinations were carried out in 96-well microtiter plates with 2-fold serial dilutions of the compounds from 0 […]
(§4) Briefly, to each well 1 µL of compound in DMSO, 89 µL of TSB, and 10 µL of bacterial inoculum, grown from frozen stock in 10 mL of TSB […]
(§5) for 4-6 hours, were added. […]
(§6) on a Biotek Synergy HTX Multi-mode plate reader. Data was processed by background subtracting the media absorbance and then normalizing the data to full bacterial growth with only vehicle.
(§7) MIC is defined as the lowest concentration of antibiotic or antibiotic/adjuvant combination that achieves ≥ 85% growth inhibition, which corresponds to no visible growth. […]

[3] = system: PΔ6 (efflux knockout strain of PA); test: as above; type: cell-based; conditions: Pseudomonas aeruginosa, read-out: MIC PΔ6
Description: as §2, §3, §4, §5, §6, §7

[4] = system: BAA 2108 (MDRPA clinical isolate); test: as above; type: cell-based, Pseudomonas aeruginosa; conditions: for MIC: Pseudomonas aeruginosa
Description: as §2, §3, §4, §5, §6, §7

[5] = system: BAA 2109 (MDRPA clinical isolate); test: as above; type: cell-based, Pseudomonas aeruginosa; conditions: for MIC: Pseudomonas aeruginosa
Description: as §2, §3, §4, §5, §6, §7

[6] = system: BAA 2110 (MDRPA clinical isolate); test: as above; type: cell-based, Pseudomonas aeruginosa; conditions: for MIC: Pseudomonas aeruginosa
Description: as §2, §3, §4, §5, §6, §7

[7] = set-up: method as in earlier work; conditions: value of the C2 functional group; cited from earlier work
[8] = BAA2108, read-out: MIC BAA 2108
[9] = BAA2109, read-out: MIC BAA 2109
[10] = BAA2110, read-out: MIC BAA 2110
[11] = >85% reduction in growth at OD 590 nm, n = 3
[12] = BAA2108, >85% reduction in growth at OD 590 nm, n = 3, read-out: MIC BAA 2108
[13] = BAA2109, >85% reduction in growth at OD 590 nm, n = 3, read-out: MIC BAA 2109
[14] = BAA2110, >85% reduction in growth at OD 590 nm, n = 3, read-out: MIC BAA 2110

| Compound | IC50 (PA ATP synthase) | PA ETC IC50 [1] | % EC ETC Inhibition at 4 µg/mL [2] [%] | MIC (PA 9027) [µg/mL] | MIC [3] [µg/mL] | approximate pKa (NH+) of C2 side chain conjugate acid [7] | other results |
| --- | --- | --- | --- | --- | --- | --- | --- |
| CCN1CCC(CCNCc2cc3ccccc3nc2SCc2ccccc2)CC1 [Compound 14] | 2.38 µM | 26 [26] μg/mL | 16 | > 128 | 16 | above 6 | MIC [4, 8]: 32 µg/mL; MIC [5, 9]: 64 µg/mL; MIC [6, 10]: 16 µg/mL |
| CSc1nc2ccccc2cc1CNCCC1CCN(C2CCCC2)CC1 [Compound 15] | 54.7 µM | 8.3 µg/mL | 6 | – | – | – | – |
| c1ccc(CSc2nc3ccccc3cc2CNCCC2CCN(C3CCCC3)CC2)cc1 [Compound 16] | 2.18 µM | 14 [14] μg/mL | 9 | > 128 | 8 | > 6 | MIC [4, 8]: 32 µg/mL; MIC [5, 9]: 64 µg/mL; MIC BAA 2110 [6, 11]: inactive; MIC [6, 10]: > 128 µg/mL |
| CSc1nc2ccccc2cc1CNCCc1cccn1C [Compound 17] | 16.1 µM | – | 0 | – | – | ∼0.5 | % PA ETC Inhibition at 32 µg/mL [1]: 65% |
| Cn1cccc1CCNCc1cc2ccccc2nc1SCc1ccccc1 [Compound 18] | 12.9 µM and 10.3 µM | – | 5 | – | – | – | % PA ETC Inhibition at 32 µg/mL [1]: 62% |
| CSc1nc2ccccc2cc1CNCCc1nc(C)cc(C)n1 [Compound 19] | 198 µM | – | 1.3 | – | – | ∼1 | % PA ETC Inhibition ([1]; concentration not given): 20% |
| Cc1cc(C)nc(CCNCc2cc3ccccc3nc2SCc2ccccc2)n1 [Compound 20] | 7.24 µM | – | 17 | – | – | – | % PA ETC Inhibition at 32 µg/mL [1]: 67% |
| CSc1nc2ccccc2cc1CNCCc1cnc[nH]1 [Compound 21] | 53.6 µM | 39 µg/mL | 5 | – | – | ∼7 | – |
| c1ccc(CSc2nc3ccccc3cc2CNCCc2cnc[nH]2)cc1 [Compound 22] | ~5.34 µM and 5.34 µM | 15 µg/mL | – | > 128 | 16 | – | EC ETC IC50 ([2]; E. coli DK8 pASH20 inverted membrane vesicles): 14 µg/mL; MIC BAA 2108 [4, 11]: displayed antibacterial activity; MIC [4, 12]: 32 µg/mL; MIC BAA 2109 [5, 11]: displayed antibacterial activity; MIC [5, 13]: 64 µg/mL; MIC [6, 14]: > 128 µg/mL |
| O=C(N[C@H](CO)[C@H](O)c1ccc([N+](=O)[O-])cc1)C(Cl)Cl [chloramphenicol, reference compound] | – | – | – | – | 4 | – | MIC (PA 9027; [11]): 128 µg/mL; MIC [4, 12]: 32 µg/mL; MIC [5, 13]: 128 µg/mL; MIC [6, 14]: 128 µg/mL |
| CNC(C)C1CCC(N)C(OC2C(N)CC(N)C(OC3OCC(C)(O)C(NC)C3O)C2O)O1 (stereo not drawn) [gentamicin, reference compound] | – | – | – | 2 to 4 | > 4 | – | MIC [4, 12]: 16 µg/mL; MIC [5, 13]: 2 µg/mL; MIC [6, 14]: 4 to 8 µg/mL |
